Test results published in ChEMBL document CHEMBL3112414, “Synthesis of 3-tetrazolylmethyl-4H-chromen-4-ones via Ugi-azide and biological evaluation against Entamoeba histolytica, Giardia lamblia and Trichomona vaginalis” (Bioorg Med Chem, 2014).

Key:
Assay type in all cases: functional, organism-based
[1] = system: Trichomonas vaginalis; test: Antiprotozoal activity against trophozoite stage of Trichomonas vaginalis GT3 assessed as growth inhibition
[2] = system: Entamoeba histolytica; test: Antiprotozoal activity against trophozoite stage of Entamoeba histolytica HM-1:IMSS assessed as growth inhibition after 48 hrs
[3] = system: Giardia intestinalis; test: Antiprotozoal activity against trophozoite stage of Giardia lamblia IMSS:8909:1 assessed as growth inhibition after 48 hrs; details: Giardia duodenalis, IMSS:8909:1, 48 h

Compound | IC50 [1] | IC50 [2] | IC50 [3]
O=c1c(C(Nc2ccccc2Br)c2nnnn2C2CCCCC2)coc2ccccc12 (stereo not given) | 195 µM | 114 µM | 253 µM
O=c1c(C(Nc2ccccc2[N+](=O)[O-])c2nnnn2C2CCCCC2)coc2ccccc12 (stereo not given) | 188 µM | 124 µM | 194 µM
CC(C)(C)n1nnnc1C(Nc1ccccc1I)c1coc2ccccc2c1=O (stereo not given) | 280 µM | 134 µM | 207 µM
O=c1c(C(Nc2ccccc2I)c2nnnn2C2CCCCC2)coc2ccccc12 (stereo not given) | 282 µM | 122 µM | 198 µM
CC(C)(C)n1nnnc1C(Nc1ccccc1)c1coc2ccccc2c1=O (stereo not given) | 432 µM | 188 µM | 316 µM
O=c1c(C(Nc2ccccc2)c2nnnn2C2CCCCC2)coc2ccccc12 (stereo not given) | 374 µM | 183 µM | 286 µM
CC(C)(C)n1nnnc1C(Nc1ccc(Cl)cc1)c1coc2ccccc2c1=O (stereo not given) | 371 µM | 161 µM | 269 µM
O=c1c(C(Nc2ccc(Cl)cc2)c2nnnn2C2CCCCC2)coc2ccccc12 (stereo not given) | 284 µM | 176 µM | 218 µM
CC(C)(C)n1nnnc1C(Nc1ccc(I)cc1)c1coc2ccccc2c1=O (stereo not given) | 246 µM | 142 µM | 197 µM
O=c1c(C(Nc2ccc(I)cc2)c2nnnn2C2CCCCC2)coc2ccccc12 (stereo not given) | 222 µM | 117 µM | 226 µM
O=c1c(C(Nc2ccc([N+](=O)[O-])cc2)c2nnnn2C2CCCCC2)coc2ccccc12 (stereo not given) | 205 µM | 116 µM | 247 µM
COc1ccc(NC(c2coc3ccccc3c2=O)c2nnnn2-c2c(C)cccc2C)cc1OC (stereo not given) | 192 µM | 111 µM | 240 µM
COc1cc(NC(c2coc3ccccc3c2=O)c2nnnn2C2CCCCC2)cc(OC)c1OC (stereo not given) | 176 µM | 87.9 µM | 171 µM
CC(C)(C)n1nnnc1C(Nc1ccccc1Br)c1coc2ccccc2c1=O (stereo not given) | 234 µM | 125 µM | 242 µM
COc1ccc(-c2coc3cc(O)ccc3c2=O)cc1 [FORMONONETIN] |  |  | 0.03 µg/mL
Cc1ncc([N+](=O)[O-])n1CCO [METRONIDAZOLE] |  | 0.23 µg/mL | 1.22 µg/mL
